Experimental data from ChEMBL document CHEMBL3045717, “Synthesis and pharmacological properties of some novel pyrazolidine and pyrazole derivatives” (2012).

Legend:
Format in all cases: functional
Conditions in all cases: read-out: DIZ
[1] = system: Bacillus subtilis; assay: Antibacterial activity against Bacillus subtilis at 200 ug/ml after 24 hr by agar diffusion cup plate method
[2] = system: Bacillus subtilis; assay: Antibacterial activity against Bacillus subtilis at 100 ug/ml after 24 hr by agar diffusion cup plate method
[3] = system: Bacillus subtilis; assay: Antibacterial activity against Bacillus subtilis at 50 ug/ml after 24 hr by agar diffusion cup plate method
[4] = system: Staphylococcus aureus; assay: Antibacterial activity against Staphylococcus aureus at 200 ug/ml after 24 hr by agar diffusion cup-plate method
[5] = system: Staphylococcus aureus; assay: Antibacterial activity against Staphylococcus aureus at 100 ug/ml after 24 hr by agar diffusion cup-plate method
[6] = system: Staphylococcus aureus; assay: Antibacterial activity against Staphylococcus aureus at 50 ug/ml after 24 hr by agar diffusion cup-plate method
[7] = system: Pseudomonas aeruginosa; assay: Antibacterial activity against Pseudomonas aeruginosa at 200 ug/ml after 24 hr by agar diffusion cup-plate method
[8] = system: Pseudomonas aeruginosa; assay: Antibacterial activity against Pseudomonas aeruginosa at 100 ug/ml after 24 hr by agar diffusion cup-plate method
[9] = system: Pseudomonas aeruginosa; assay: Antibacterial activity against Pseudomonas aeruginosa at 50 ug/ml after 24 hr by agar diffusion cup-plate method
[10] = system: Escherichia coli; assay: Antibacterial activity against Escherichia coli at 100 ug/ml after 24 hr by agar diffusion cup-plate method
[11] = system: Escherichia coli; assay: Antibacterial activity against Escherichia coli at 200 ug/ml after 24 hr by agar diffusion cup-plate method
[12] = system: Escherichia coli; assay: Antibacterial activity against Escherichia coli at 50 ug/ml after 24 hr by agar diffusion cup-plate method
[13] = system: Aspergillus niger; assay: Antifungal activity against Aspergillus niger at 200 ug/ml after 48 to 72 hr by agar diffusion cup-plate method
[14] = system: Aspergillus niger; assay: Antifungal activity against Aspergillus niger at 50 ug/ml after 48 to 72 hr by agar diffusion cup-plate method
[15] = system: Aspergillus niger; assay: Antifungal activity against Aspergillus niger at 100 ug/ml after 48 to 72 hr by agar diffusion cup-plate method
[16] = system: Candida albicans; assay: Antifungal activity against Candida albicans at 200 ug/ml after 48 to 72 hr by agar diffusion cup-plate method
[17] = system: Candida albicans; assay: Antifungal activity against Candida albicans at 100 ug/ml after 48 to 72 hr by agar diffusion cup-plate method
[18] = system: Candida albicans; assay: Antifungal activity against Candida albicans at 50 ug/ml after 48 to 72 hr by agar diffusion cup-plate method

Row | Structure (SMILES) | zone of inhibition at 200 µg/mL [1] | zone of inhibition at 100 µg/mL [2] | zone of inhibition at 50 µg/mL [3] | zone of inhibition at 200 µg/mL [4] | zone of inhibition at 100 µg/mL [5] | zone of inhibition at 50 µg/mL [6] | zone of inhibition at 200 µg/mL [7] | zone of inhibition at 100 µg/mL [8] | zone of inhibition at 50 µg/mL [9] | zone of inhibition at 100 µg/mL [10] | zone of inhibition at 200 µg/mL [11] | zone of inhibition at 50 µg/mL [12] | zone of inhibition at 200 µg/mL [13] | zone of inhibition at 50 µg/mL [14] | zone of inhibition at 100 µg/mL [15] | zone of inhibition at 200 µg/mL [16] | zone of inhibition at 100 µg/mL [17] | zone of inhibition at 50 µg/mL [18]
1 | CCn1cc(C(=O)O)c(=O)c2cc(F)c(N3CCNCC3)cc21 [NORFLOXACIN] | 31.3 mm | 31.3 mm | 31.3 mm | 30.4 mm | 30.4 mm | 30.4 mm | 31.1 mm | 31.1 mm | 31.1 mm | 35.4 mm | 35.5 mm | 35.4 mm |  |  |  |  |  | 
2 | O=C1CC(CCl)=NN1c1ccc([N+](=O)[O-])cc1[N+](=O)[O-] | 28 mm | 20.1 mm | 12.2 mm | 28.1 mm | 20 mm | 15 mm | 28.6 mm | 22.1 mm | 14 mm | 23 mm | 30.4 mm | 14.2 mm | 26.6 mm | 14 mm | 22.1 mm | 26.4 mm | 23 mm | 14.2 mm
3 | NC1=NN(c2ccc([N+](=O)[O-])cc2[N+](=O)[O-])C(=O)C1 | 12 mm | 8.1 mm | 10.4 mm | 26 mm | 20 mm | 14 mm | 16.3 mm | 12.1 mm | 8.4 mm | 16 mm | 20.6 mm | 12.3 mm | 14.3 mm | 8.4 mm | 10.1 mm | 20.8 mm | 14 mm | 12.3 mm
4 | Cc1cc(C)n(-c2ccc([N+](=O)[O-])cc2[N+](=O)[O-])n1 | 22.9 mm | 18.5 mm | 10.4 mm | 24 mm | 23 mm | 14 mm | 25 mm | 18.6 mm | 10.2 mm | 23 mm | 28.5 mm | 14.3 mm | 25 mm | 10.2 mm | 18.6 mm | 24.5 mm | 20 mm | 14.3 mm
5 | O=[N+]([O-])c1ccc(NNC(=S)Nc2ccccc2)c([N+](=O)[O-])c1 | 18.4 mm | 14.1 mm | 10.2 mm | 18 mm | 14 mm | 10 mm | 20.2 mm | 14.2 mm | 12 mm | 14.1 mm | 18.6 mm | 10.2 mm | 16.2 mm | 10 mm | 14.2 mm | 18.4 mm | 14.1 mm | 11.5 mm
6 | CC(=O)N1C(=O)CC(=O)N1c1ccc([N+](=O)[O-])cc1[N+](=O)[O-] | 25.1 mm | 18.9 mm | 10.2 mm | 26.1 mm | 22 mm | 10 mm | 28 mm | 22.8 mm | 18.2 mm | 15.2 mm | 30.6 mm | 13.2 mm | 24 mm | 12.2 mm | 16.8 mm | 24.2 mm | 18.2 mm | 13.2 mm
7 | Clc1ccccc1C(c1ccccc1)(c1ccccc1)n1ccnc1 [CLOTRIMAZOLE] |  |  |  |  |  |  |  |  |  |  |  |  | 28.4 mm | 28.4 mm | 28.4 mm | 28.4 mm | 28.4 mm | 28.4 mm
8 | O=C1CC(=O)N(c2ccc([N+](=O)[O-])cc2[N+](=O)[O-])N1 | 16 mm | 12 mm | 10.2 mm | 18.1 mm | 12 mm | 8.4 mm | 16.1 mm | 13.2 mm | 12.1 mm | 18.1 mm | 20.2 mm | 16.2 mm | 14.1 mm | 10.1 mm | 12.2 mm | 10.2 mm | 10.1 mm | 6.2 mm
9 | O=C1CS/C(=N/c2ccccc2)N1Nc1ccc([N+](=O)[O-])cc1[N+](=O)[O-] | 26.4 mm | 20.8 mm | 12 mm | 30.4 mm | 22.2 mm | 16.2 mm | 12 mm | 10.3 mm | 10.2 mm | 26.1 mm | 30.1 mm | 18.2 mm | 16.6 mm | 10.2 mm | 14.5 mm | 24.2 mm | 18.4 mm | 11.1 mm
10 | CC1=NN(c2ccc([N+](=O)[O-])cc2[N+](=O)[O-])C(=O)C1 | 12 mm | 10.1 mm | 10.2 mm | 24.1 mm | 18 mm | 14.2 mm | 22 mm | 16 mm | 12.2 mm | 16 mm | 20.4 mm | 12 mm | 18 mm | 12.2 mm | 14 mm | 20.4 mm | 14 mm | 10 mm
